Test results reported in patent US20210038732A1, “ANTICANCER MICRORNA AND LIPID FORMULATIONS THEREOF” (INTERNA TECHNOLOGIES B.V., priority 2018, published 2021).

Experiments:
[1] = test system: 4T1 tumor microenvironment; experiment: FACS analysis of immune cells in orthotopic 4T1 tumors (Example 4.4); assay type: in vivo, mice
Procedure: Freshly isolated orthotopic 4T1 tumors were prepared for FACS analysis on day 5 (week 1) and day 12 (week 2) post miRNA-193a treatment when they reached a min tumor volume (TV) of 300 mm^3. Tumor samples were digested using murine tumor dissociation kit from Miltenyi (CAT #130-096-730). Following tumor cell digestion cells were re-suspended in 200 μl staining buffer with […] Fc-Block (Mouse BD Fc Block™ CAT #553141) and incubated at 4° C. for 15 minutes in the dark. Different markers (CD45, CD3, CD4, CD8, FoxP3, CD335, F4/80, CD11b, Gr-1, CD73, LAG3/CD223, IL-2, IFN-r, PD-1, L/D stain) have been used for FACS analysis. Antibody mixture for all markers except IL-2, IFN-r and LAG3 were diluted in Fc blocking buffer for each sample and stained for 30 min on ice, in the dark. Then, cells were gently washed by adding 2 ml of ice cold PBS to each tube. Each tube was centrifuged at 300 g for 5 minutes and supernatant was discarded. To detect intracellular markers (IL-2, IFN-r and LAG3) stimulation of the digested cells was performed. To do so, Leukocyte Activation Cocktail, with BD GolgiPlug™ was used. The cocktail was thawed at 37° C. in a water bath rapidly and for every 1 mL of cell culture (e.g., ˜10^6 cells/mL) 2 μL of cocktail was added and mixed thoroughly. To stimulate, cell culture mix was placed in a 37° C. humidified CO2 incubator for 4-6 hr. Then the cells were harvested and washed with FACS staining buffer. For staining, cell pellet was resuspended with pulse vortex and 200 ul of prepared Fixation/Permeabilization was added to each sample. Samples were incubated for 10 min at RT in the dark. Then, samples were washed twice by adding 1 ml of 1× Permeabilization Buffer (made from 10× Permeabilization Buffer, diluted with distilled H2O) followed by centrifugation and decanting of supernatant and each sample was incubated with the antibody cocktail containing FoxP3, IFN-r and IL-2 in 1× Permeabilization Buffer and incubated at RT for 30 minutes in the dark. Finally, cells were resuspended in […] of staining Buffer and analyzed on cytometer. The data was analysed by Kaluza flow cytometry software (from Beckman Coulter).
(§1) Six to eight weeks old female BALB/c mice (Shanghai Lingchang Bio-Technology Co. Ltd, Shanghai, China) were injected with 3×10^5 4T1 mouse tumor cells in PBS (0.1 mL/mouse) into the mammary fat pad. At the time of randomization, the TVs ranged between 69.9 and 173.9 mm3 (median 105.7, IQR=100.7-125.4). Body weights and TVs (caliper measurements) were determined 2-3 times/week. After randomization (day 9 after tumor inoculation) mice received different treatments under different dosing regimen (see Table 9 for dosing scheme). For all groups, 4 mice are sacrificed 48h after the 2nd miRNA-193a injection in the first week and in the 2nd week. Primary tumors were surgically removed from the mammary fat pad on day 20 after inoculation. After a recovery period of 3 days, treatment was resumed for 6 more weeks until day 63. Re-growth of (distant) tumors was monitored in addition to BW, and mice were sacrificed if end-points were met.

[2] = test system: A2058 melanoma cells; experiment: Adenosine assay; assay type: cell-based, human; settings: miRNA-193a-3p at 10 nM, vs untreated, mock, scrambled
Procedure: 4000 A2058 melanoma cells were seeded per well in a 96 well plate. 4h after seeding, cells were transfected with different concentrations of miRNA-193a-3p, scrambled control, siNT5E and siPool as control. 24h post transfection the cells were treated with 500 μM AMP and adenosine measurement was performed 24h post-treatment following steps from adenosine measurement kit (BioVision).

[3] = test system: 4T1; experiment: Cell viability (MTS assay or cell count); assay type: cell-based, mouse; settings: 10 nM; TNBC 4T1; normalized to mock
Procedure: Depending on cancer cell type 3000-6000 cells were seeded in a 96 well plate. After cells attached, they were transfected with different concentrations of miRNA-193a and viability was measured at different time points. Viability measurement was performed using CellTiter 96 AQueous One Solution Cell Proliferation Assay (Promega). 20 μL of MTS reagent was added to 100 μL of media in each well in 96-well plate and incubated for 2 hours at 37° C. Absorbance was measured at 490 nm for each sample in 96 well plate reader.
Different biological effects of miRNA-193a-3p have been tested in various cancer cell lines (see Table 13). For this, various cells were treated with miRNA-193a at different concentrations (1, 3, 10 nM). For all experiments controls (untreated, mock and scrambled) were measured. […] Data shown in Table 13 are the results for miRNA-193a at 10 nM concentration at indicated time points. All the results have been quantified and normalized to the mock control.
miRNA-193a treatment in various cancer cell lines decreased cell viability over time as measured by either an MTS assay or by cell count. It enhanced apoptosis induction over time as measured by a caspase 3/7 apoptosis assay. […] It is of note that due to intrinsic characteristics and gene mutation status of each cell line, performing one method to detect apoptosis is not always ideal for all cell lines.

[4] = test system: H22 Hepatocarcinoma; experiment: Primary tumor growth, syngeneic model; assay type: in vivo, mice; settings: 10 mg/kg i.v BIW x 3-4 weeks, vs PBS
Text: (§2) In this study, the effect of miRNA-193a formulated in diamino lipid nanoparticles was investigated on the primary tumor growth in a panel of twelve syngeneic tumor models. Six to eight weeks mice (Shanghai Lingchang Bio-Technology Co. Ltd, Shanghai, China) were subcutaneously injected with an appropriate number of syngeneic cancer cells, depending on the cancer model (see Table 18). At the time of randomization, tumor volume (TV) was approximately 80-120 mm^3. Body weights and TVs (caliper measurements) were determined 2-3 times/week. After randomization (indicated as day 0) mice received PBS or miR-193a (formulated in diamino lipid nanoparticles) treatments as shown in Table 19. Each tumor model had two groups as depicted in Table 19. Mice were scheduled to be euthanized after two weeks of follow up after a maximum of four weeks of treatment.

[5] = test system: B16-BL6 Melanoma; experiment: Primary tumor growth, syngeneic model; assay type: in vivo, mice; settings: 10 mg/kg i.v BIW x 3-4 weeks, vs PBS
Text: as §2

[6] = test system: A20 Reticulum cell sarcoma (lymphoma); experiment: Primary tumor growth, syngeneic model; assay type: in vivo, mice; settings: 10 mg/kg i.v BIW x 3-4 weeks, vs PBS
Text: as §2

[7] = test system: Pan02 Pancreatic adenocarcinoma; experiment: Primary tumor growth, syngeneic model; assay type: in vivo, mice; settings: 10 mg/kg i.v BIW x 3-4 weeks, vs PBS
Text: as §2

[8] = test system: 4T1 triple negative breast cancer tumors; experiment: Primary tumor regrowth and survival after 4T1 tumor resection (Example 4.4); assay type: in vivo, mice
Procedure: as §1

miRNA-193a: duplex of the miRNA-193a-3p of SEQ ID NO: 218 (mimic, sense) with antisense strand SEQ ID NO: 219; naked in vitro, formulated in vivo (sense UGGGACUUUGUAGGCCAGUUTT; antisense AACUGGCCUACAAAGUCCCAGU; chemistry not given here; listed as Homo sapiens)
Ratio of CD8+ T cells/Treg cells ([1]; 2 weeks post start of treatment, 10 mg/kg BIW iv, diamino lipid nanoparticles): > 1 | Regulatory T cell population (FOXP3+/LAG3+) ([1]; after 1 week): significant decrease | T-cell function (production of IFNγ and IL-2) ([1]; after 1 week, CD45+ tumor cell population): significant increase | Regulatory T cell population (FOXP3+/LAG3+) ([1]; after 2 weeks): significant decrease | T-cell frequency (CD8+) ([1]; after 2 weeks): significant increase | T-cell function (IFNγ) ([1]; after 2 weeks): mild induction | CD73 (NT5E) expression level in immune cells ([1]; week 1 and week 2, 48h after administration): down-regulated | Adenosine generation [2]: reduces | Viability (96 h) [3]: ↓ (Viability > 50%) | % TGI by miRNA-193a [4]: 45% | % TGI by miRNA-193a [5]: 34% | % TGI by miRNA-193a [6]: 54% | % TGI by miRNA-193a [7]: 46% | Tumor re-growth after tumor excision ([8]; formulated in diamino lipid nanoparticles, 10 mg/kg BIW iv): reduced tumor re-growth | Mouse survival ([8]; formulated in diamino nanoparticles, 10 mg/kg BIW iv): positively affected mouse survival | Mice that showed a tumor re-growth after primary tumor removal ([8]; primary tumor removal day 20, 10 mg/kg twice weekly for further 6 weeks): 1 out of 10
